Assay results from BindingDB's records for doi:10.1002/cbic.201300197 (Nankai University, 2013).

Columns and labels:
[1] = molecular target: T1, Lysosomal acid glucosylceramidase (Homo sapiens, UniProt P04062); test: GCase IC50 Assay
T1 sequence (P04062 whole entry): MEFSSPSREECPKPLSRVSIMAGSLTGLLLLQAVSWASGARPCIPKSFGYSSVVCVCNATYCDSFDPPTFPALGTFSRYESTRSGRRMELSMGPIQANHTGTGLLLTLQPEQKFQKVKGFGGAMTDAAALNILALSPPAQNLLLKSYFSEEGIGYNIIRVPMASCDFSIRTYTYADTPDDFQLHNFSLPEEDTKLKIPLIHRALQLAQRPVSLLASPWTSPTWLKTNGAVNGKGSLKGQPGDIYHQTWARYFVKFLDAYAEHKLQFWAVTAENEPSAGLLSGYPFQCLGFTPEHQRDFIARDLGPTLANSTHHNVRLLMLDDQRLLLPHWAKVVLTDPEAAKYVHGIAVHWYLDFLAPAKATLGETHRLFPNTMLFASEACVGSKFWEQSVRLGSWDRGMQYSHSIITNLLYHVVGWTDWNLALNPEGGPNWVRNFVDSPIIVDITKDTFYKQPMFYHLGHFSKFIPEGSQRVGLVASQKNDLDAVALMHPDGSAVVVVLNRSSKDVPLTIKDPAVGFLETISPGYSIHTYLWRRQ

[2] = molecular target: T2, Prunasin hydrolase (Prunus dulcis, UniProt H9ZGE1); test: Inhibition Assay Against Commercial Glycosidases; conditions: 37 °C
T2 sequence (H9ZGE1 whole entry): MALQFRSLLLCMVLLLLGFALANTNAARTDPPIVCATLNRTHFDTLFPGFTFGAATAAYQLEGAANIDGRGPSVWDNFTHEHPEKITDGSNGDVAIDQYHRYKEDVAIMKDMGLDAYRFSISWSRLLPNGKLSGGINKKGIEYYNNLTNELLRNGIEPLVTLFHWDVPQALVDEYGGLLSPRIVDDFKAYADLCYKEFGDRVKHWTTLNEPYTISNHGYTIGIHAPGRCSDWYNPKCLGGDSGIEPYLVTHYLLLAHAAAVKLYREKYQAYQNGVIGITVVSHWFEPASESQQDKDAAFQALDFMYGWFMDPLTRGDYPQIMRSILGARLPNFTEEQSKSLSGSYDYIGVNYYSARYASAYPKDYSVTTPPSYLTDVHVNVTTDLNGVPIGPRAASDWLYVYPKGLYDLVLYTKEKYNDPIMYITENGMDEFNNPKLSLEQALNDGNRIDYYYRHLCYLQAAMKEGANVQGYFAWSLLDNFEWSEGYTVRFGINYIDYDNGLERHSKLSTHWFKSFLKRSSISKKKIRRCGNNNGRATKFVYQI
Description: (§1) In a 96-well plates, 10µL of commercial enzyme solutions without (control) or with 20µL of inhibitor were incubated at 37°C for 5 min. After addition of 20µL of substrate solution, incubations were prolonged for different time periods: 10 min for β-glucosidase (almond), 5 min for α-glucosidase (saccharomyces cerevisiae) and 8 min for β-galactosidase (bovine liver) and α-galactosidase (green coffee beans) and stopped by addition of 150µL of glycine/NaOH buffer (100mM, pH 10.6). The amount of 4-MU formed was determined at 355nm (excitation) and 460nm (emission). For β-glucosidase (almond), the activity was determined with 4-MU-β-D-Glu (1mM) in sodium acetate buffer (100 mM, pH 5.2). For α-glucosidase (saccharomyces cerevisiae), the activity was determined with4-methylumbelliferyl-α-D-glucopyranoside (4-MU-α-D-Glu, 1 mM) in sodium phosphate buffer (100 mM, pH 7.2). For β-galactosidase (bovine liver), the activity was determined with 4-me

[3] = molecular target: Alpha-glucosidase MAL12 (Saccharomyces cerevisiae (strain ATCC 204508 / S288c), UniProt P53341); test: Inhibition Assay Against Commercial Glycosidases; conditions: 37 °C
Chain of Alpha-glucosidase MAL12 (P53341 whole entry): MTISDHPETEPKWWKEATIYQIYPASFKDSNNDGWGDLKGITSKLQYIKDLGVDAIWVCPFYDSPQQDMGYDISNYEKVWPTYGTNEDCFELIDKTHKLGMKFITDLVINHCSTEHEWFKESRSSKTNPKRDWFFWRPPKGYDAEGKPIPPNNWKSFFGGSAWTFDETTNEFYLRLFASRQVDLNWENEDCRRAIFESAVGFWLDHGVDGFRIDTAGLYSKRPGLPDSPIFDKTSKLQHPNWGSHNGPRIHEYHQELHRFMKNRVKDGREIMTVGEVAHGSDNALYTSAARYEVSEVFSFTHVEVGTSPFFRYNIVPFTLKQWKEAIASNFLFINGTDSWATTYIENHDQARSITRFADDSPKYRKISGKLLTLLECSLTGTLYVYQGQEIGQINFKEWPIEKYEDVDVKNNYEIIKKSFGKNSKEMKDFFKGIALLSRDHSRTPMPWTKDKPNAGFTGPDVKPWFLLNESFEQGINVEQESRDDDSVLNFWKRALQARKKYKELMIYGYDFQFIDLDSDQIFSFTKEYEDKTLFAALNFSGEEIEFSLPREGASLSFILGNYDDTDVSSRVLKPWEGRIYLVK
Description: as §1

[4] = molecular target: T3, Beta-galactosidase (Bos taurus, UniProt Q58D55); test: Inhibition Assay Against Commercial Glycosidases; conditions: 37 °C
T3 sequence (Q58D55 whole entry): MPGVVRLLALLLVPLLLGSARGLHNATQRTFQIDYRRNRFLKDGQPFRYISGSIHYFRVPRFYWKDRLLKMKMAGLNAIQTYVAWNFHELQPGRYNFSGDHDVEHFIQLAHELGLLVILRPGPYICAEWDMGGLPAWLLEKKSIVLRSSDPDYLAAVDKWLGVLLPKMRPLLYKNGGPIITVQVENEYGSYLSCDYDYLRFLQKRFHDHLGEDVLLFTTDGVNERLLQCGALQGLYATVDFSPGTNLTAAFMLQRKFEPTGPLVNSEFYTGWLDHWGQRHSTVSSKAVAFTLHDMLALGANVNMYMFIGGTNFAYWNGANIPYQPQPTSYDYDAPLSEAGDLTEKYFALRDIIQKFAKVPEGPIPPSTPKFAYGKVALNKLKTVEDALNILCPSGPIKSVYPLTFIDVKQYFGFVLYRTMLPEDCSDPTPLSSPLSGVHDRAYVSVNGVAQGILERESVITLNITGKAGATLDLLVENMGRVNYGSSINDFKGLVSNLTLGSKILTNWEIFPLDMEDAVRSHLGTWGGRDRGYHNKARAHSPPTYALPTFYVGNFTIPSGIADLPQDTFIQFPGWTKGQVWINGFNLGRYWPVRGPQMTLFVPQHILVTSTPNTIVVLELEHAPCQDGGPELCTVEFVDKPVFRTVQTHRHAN
Description: as §1

[5] = molecular target: Alpha-galactosidase (Coffea arabica, UniProt Q42656); test: Inhibition Assay Against Commercial Glycosidases; conditions: 37 °C
Chain of Alpha-galactosidase (Q42656 whole entry): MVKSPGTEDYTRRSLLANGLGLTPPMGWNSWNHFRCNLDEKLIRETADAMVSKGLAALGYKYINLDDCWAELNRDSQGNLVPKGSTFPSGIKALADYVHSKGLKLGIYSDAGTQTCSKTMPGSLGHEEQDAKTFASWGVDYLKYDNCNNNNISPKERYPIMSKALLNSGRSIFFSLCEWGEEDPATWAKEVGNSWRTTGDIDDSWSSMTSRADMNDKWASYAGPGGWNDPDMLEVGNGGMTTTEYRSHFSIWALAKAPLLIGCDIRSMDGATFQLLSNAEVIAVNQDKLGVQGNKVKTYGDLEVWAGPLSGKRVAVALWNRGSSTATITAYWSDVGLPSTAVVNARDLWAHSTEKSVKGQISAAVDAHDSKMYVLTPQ
Description: as §1

[6] = molecular target: T1, Lysosomal acid glucosylceramidase; test: GCase Ki Assay; conditions: pH 5.2

SMILES	IC50 ([1]; pH 5.2) [nM]	IC50 ([1]; pH 7) [nM]	IC50 [2] [nM]	IC50 [3] [nM]	IC50 [4] [nM]	IC50 [5] [nM]	Ki [6] [nM]
OCC1C(O)C(O)C(O)c2nc(CCc3ccccc3)cn21 (centres undefined) [5-(hydroxymethyl)-2-(2-phenylethyl)-5H,6H,7H,8H-imidazo[1,2-a]pyridine-6,7,8-triol (Compound 2)]	3.71	2.04	58	570	190	16100	3.19
OCC1C(O)C(O)C(O)c2nccn21 (centres undefined) [5-(hydroxymethyl)-5H,6H,7H,8H-imidazo[1,2-a]pyridine-6,7,8-triol (Compound 1)]	91.6	79.2	220	98500	230	7290	33.1
OCC1C(O)C(O)C(O)c2nc(CCCc3ccc(-c4ccccc4)cc3)cn21 (centres undefined) [5-(hydroxymethyl)-2-[3-(4-phenylphenyl)propyl]-5H,6H,7H,8H-imidazo[1,2-a]pyridine-6,7,8-triol (Compound 7)]	5.27	5.11	42	6		1660	3.62
CC(C)(CCCc1cn2c(n1)C(O)C(O)C(O)C2CO)C(=O)Nc1ccccc1 (centres undefined) [2,2-dimethyl-N-phenyl-5-[6,7,8-trihydroxy-5-(hydroxymethyl)-5H,6H,7H,8H-imidazo[1,2-a]pyridin-2-yl]pentanamide (Compound 11)]	12	11.5	910	12800	7830	4710	18.9
O=C(CCCc1cn2c(n1)C(O)C(O)C(O)C2CO)Nc1ccccc1 (centres undefined) [N-phenyl-4-[6,7,8-trihydroxy-5-(hydroxymethyl)-5H,6H,7H,8H-imidazo[1,2-a]pyridin-2-yl]butanamide (Compound 10)]	6.96	7.67	140	1050	11800	1480	4.18
OCC1C(O)C(O)C(O)c2nc(CCCc3ccc(C4CCCCC4)cc3)cn21 (centres undefined) [2-[3-(4-cyclohexylphenyl)propyl]-5-(hydroxymethyl)-5H,6H,7H,8H-imidazo[1,2-a]pyridine-6,7,8-triol (Compound 8)]	8.42	7.8	4	52	1	11400	1.93

Continued, values first:

IC50 ([1]; pH 5.2) [nM]	IC50 ([1]; pH 7) [nM]	IC50 [2] [nM]	IC50 [3] [nM]	IC50 [4] [nM]	IC50 [5] [nM]	Ki [6] [nM]	SMILES
8.39	5.05	117	970	37	12500	5.38	CCCCCCCCc1cn2c(n1)C(O)C(O)C(O)C2CO (centres undefined) [5-(hydroxymethyl)-2-octyl-5H,6H,7H,8H-imidazo[1,2-a]pyridine-6,7,8-triol (Compound 4)]
6.23	4.75	31	730	230	3750	3.48	OCC1C(O)C(O)C(O)c2nc(CCCc3ccc(F)cc3)cn21 (centres undefined) [2-[3-(4-fluorophenyl)propyl]-5-(hydroxymethyl)-5H,6H,7H,8H-imidazo[1,2-a]pyridine-6,7,8-triol (Compound 9)]
		95900	> 100000		9490		CCCCCCCCCN1C[C@H](O)[C@@H](O)[C@H](O)[C@H]1CO
5.34	4.26	79	3420	350	12800	5.34	CC(C)(C)CCc1cn2c(n1)C(O)C(O)C(O)C2CO (centres undefined) [2-(3,3-dimethylbutyl)-5-(hydroxymethyl)-5H,6H,7H,8H-imidazo[1,2-a]pyridine-6,7,8-triol (Compound 3)]
5.44	4.73	42	280	100	4480	1.46	Cc1ccc(CCCc2cn3c(n2)C(O)C(O)C(O)C3CO)cc1 (centres undefined) [5-(hydroxymethyl)-2-[3-(4-methylphenyl)propyl]-5H,6H,7H,8H-imidazo[1,2-a]pyridine-6,7,8-triol (Compound 5)]
2.97	3.62	78	300	92	4900	1.17	COc1ccc(CCCc2cn3c(n2)C(O)C(O)C(O)C3CO)cc1 (centres undefined) [5-(hydroxymethyl)-2-[3-(4-methoxyphenyl)propyl]-5H,6H,7H,8H-imidazo[1,2-a]pyridine-6,7,8-triol (Compound 6)]
